Results on eleven molecules are retold here after ChEMBL document CHEMBL1201862, “PubChem BioAssay data set” (2004).

The structures appear in SMILES notation.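 Values below derive from 48-hour exposures of cells grown in 96-well plates, with endpoints linearly interpolated between the two concentrations bracketing the appropriate inhibition level. GI50: concentration for 50% inhibition of growth.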 The source made the active and inactive calls. No stated cut-off is given here; in the data, active = GI50 up to about 1.1 µM and inactive = higher. Where only a bound is given, the exact number is not on record here.

Among the test systems are Hs-578T; DU-145; UACC-257; SK-MEL-2; HCT-15; MDA-MB-231; OVCAR-3; COLO 205; EKVX; SK-MEL-28; SW-620; IGROV-1; RXF 393; A498; PC-3; SNB-19; UACC-62; SF-268; U-251.
Holding throughout (assay): inhibition of tumour cell growth, NCI panel, 48 h

As for `CCOC(=O)C(=O)N1C(C)=C(C(=O)OCC)CC(C(=O)OCC)=C1C`, the GI50 in the experiment on Hs-578T was > 100 µM (inactive); with DU-145, > 100 µM (inactive); in the experiment on UACC-257, > 100 µM (inactive); with SK-MEL-2 it was > 100 µM (inactive); in the experiment on HCT-15, over 100 µM; with MDA-MB-231, > 100 µM (inactive). For the same molecule, the GI50 in the experiment on OVCAR-3, with COLO 205, with EKVX, in the experiment with SK-MEL-28, with SW-620 and in the experiment on IGROV-1 was > 100 µM (inactive) in each case. Besides, the GI50 in the experiment on RXF 393, with A498, in the experiment with PC-3, in the experiment on SNB-19 and in the experiment on UACC-62 was > 100 µM (inactive) throughout.

On to `Cc1ccc(Nc2nc3c(=O)n(C)c(=O)n(C)c3nc2Nc2ccc(C)cc2)cc1`, for which the GI50 was 25.8 µM (inactive) with Hs-578T; 16 µM (inactive) in the experiment on SF-268; 32.4 µM (inactive) in the experiment on DU-145; 15.7 µM (inactive) with UACC-257; 17.8 µM (inactive) in the experiment with SK-MEL-2; 3.32 µM in the experiment with HCT-15. Further, the GI50 is 13.7 µM (inactive) with MDA-MB-231; 4.67 µM (inactive) in the experiment on COLO 205; 16 µM (inactive) in the experiment on EKVX; 16.7 µM (inactive) in the experiment with SK-MEL-28; 1.74 µM (inactive) in the experiment with SW-620; 15 µM (inactive) in the experiment with IGROV-1. Further, the GI50 with RXF 393 was 10.3 µM (inactive); in the experiment with A498, 16.5 µM (inactive); with PC-3, 14.7 µM (inactive); in the experiment with SNB-19 it was 31.3 µM (inactive); in the experiment with U-251, 16.3 µM (inactive); in the experiment with UACC-62, 12.3 µM (inactive).

`COc1cc(S(=O)(=O)Nc2ccc(-c3csc(N)n3)cc2)ccc1Cl`: the GI50 is 53.7 µM (inactive) in the experiment on Hs-578T; 34.4 µM (inactive) in the experiment with SF-268; 18 µM (inactive) in the experiment on DU-145; 18.8 µM (inactive) with SK-MEL-2; 20.1 µM in the experiment with HCT-15; 16.9 µM (inactive) in the experiment on MDA-MB-231. In addition, the GI50 with OVCAR-3 is 14.9 µM (inactive); in the experiment with COLO 205, 17 µM (inactive); in the experiment on EKVX, 16.6 µM (inactive); with SK-MEL-28 it was 21.3 µM (inactive); in the experiment on SW-620, 24.3 µM (inactive); with RXF 393, 12.2 µM (inactive). The GI50 is 18.2 µM (inactive) in the experiment on A498, 15.3 µM (inactive) with PC-3, 19.5 µM (inactive) with SNB-19 and 15.2 µM (inactive) in the experiment with UACC-62.

Turning to `Cc1ccc(Cc2cc(N3CCN(c4cccc(Cl)c4)CC3)nnc2C)cc1`, the GI50 in the experiment with Hs-578T was 54 µM (inactive); in the experiment on SF-268, > 100 µM (inactive); with DU-145, > 100 µM (inactive); in the experiment with UACC-257, 14.2 µM (inactive); with SK-MEL-2, 96.2 µM (inactive); with HCT-15 it was 63.8 µM. Besides, the GI50 was > 100 µM (inactive) in the experiment with MDA-MB-231; > 100 µM (inactive) in the experiment on OVCAR-3; 29.6 µM (inactive) with COLO 205; 34.4 µM (inactive) in the experiment with EKVX; > 100 µM (inactive) in the experiment with SK-MEL-28; 34.3 µM (inactive) in the experiment with SW-620. In addition, the GI50 with RXF 393 is 84.7 µM (inactive); in the experiment on A498, > 100 µM (inactive); in the experiment with PC-3, 46.8 µM (inactive); in the experiment with SNB-19 it was > 100 µM (inactive); with U-251, 32.7 µM (inactive); with UACC-62 it was > 100 µM (inactive).

On to `C/C(CC(O)(C(F)(F)Cl)C(F)(F)Cl)=N\Nc1ccccc1`, for which the GI50 in the experiment with Hs-578T was 27.2 µM (inactive); with DU-145 it was 49 µM (inactive); with UACC-257 it was 44.7 µM (inactive); in the experiment with SK-MEL-2, 21.5 µM (inactive); in the experiment on HCT-15, 32.1 µM; with MDA-MB-231 it was 47.6 µM (inactive). The GI50 was 19.1 µM (inactive) with OVCAR-3; 31.8 µM (inactive) in the experiment on COLO 205; 23.1 µM (inactive) with EKVX; 47.2 µM (inactive) in the experiment with SK-MEL-28; 31 µM (inactive) in the experiment on SW-620; 36.3 µM (inactive) in the experiment on IGROV-1. Besides, the GI50 with RXF 393 was 19.2 µM (inactive); with A498, 40 µM (inactive); in the experiment on PC-3, 22.2 µM (inactive); in the experiment on SNB-19, 36.9 µM (inactive); in the experiment on U-251, 28.2 µM (inactive); in the experiment on UACC-62, 43.3 µM (inactive).

Turning to `CC(=O)CC(=O)N1CCSC1=S`, the GI50 in the experiment with Hs-578T is > 10 µM (inactive); in the experiment on SF-268 it was > 10 µM (inactive); in the experiment on DU-145, > 10 µM (inactive); in the experiment with UACC-257, > 10 µM (inactive); in the experiment on SK-MEL-2, > 10 µM (inactive); in the experiment on HCT-15, over 10 µM. Besides, the GI50 in the experiment on MDA-MB-231, in the experiment on OVCAR-3, with EKVX, with SK-MEL-28, in the experiment on SW-620 and in the experiment with IGROV-1 was > 10 µM (inactive) throughout. Moreover, the GI50 in the experiment with RXF 393, in the experiment on A498, with PC-3, with SNB-19, in the experiment with U-251 and in the experiment on UACC-62 was > 10 µM (inactive) in each case.

Turning to `COc1ccc(NC(=O)/C(=N/NC(N)=S)C2C(=O)NC(=S)NC2=O)c(OC)c1`, the GI50 is > 100 µM (inactive) in the experiment on Hs-578T; > 100 µM (inactive) in the experiment with SF-268; > 100 µM (inactive) with DU-145; > 100 µM (inactive) in the experiment with UACC-257; > 100 µM (inactive) in the experiment with SK-MEL-2; over 100 µM with HCT-15. The GI50 in the experiment on MDA-MB-231, in the experiment on OVCAR-3, with COLO 205, in the experiment with EKVX, with SK-MEL-28 and in the experiment with SW-620 was > 100 µM (inactive) in each case. Also, the GI50 in the experiment with IGROV-1, in the experiment on A498, in the experiment on PC-3, in the experiment with SNB-19, in the experiment on U-251 and in the experiment on UACC-62 was > 100 µM (inactive) each time.

Take `O=C1N/C(=N/N=C\c2ccccc2)N/C1=C/c1ccccc1`: the GI50 with Hs-578T was 27.3 µM (inactive); in the experiment on SF-268, 27.3 µM (inactive); with DU-145, 22.3 µM (inactive); in the experiment on UACC-257 it was 53.6 µM (inactive); in the experiment with SK-MEL-2, 27.6 µM (inactive); in the experiment with HCT-15 it was 32.9 µM. The GI50 is 47 µM (inactive) with MDA-MB-231; 32.2 µM (inactive) with OVCAR-3; 68.5 µM (inactive) with COLO 205; 23.8 µM (inactive) in the experiment on EKVX; 85.1 µM (inactive) in the experiment on SK-MEL-28; 38.5 µM (inactive) in the experiment with SW-620. Further, the GI50 is 24.8 µM (inactive) with IGROV-1; 30 µM (inactive) in the experiment with RXF 393; 30.9 µM (inactive) with A498; 24.9 µM (inactive) with PC-3; 21.6 µM (inactive) in the experiment on SNB-19; 33.7 µM (inactive) with U-251.

On to `CCn1c(-c2ccccc2)cs/c1=N\C(P(=O)(O)O)P(=O)(O)O`, for which the GI50 in the experiment with Hs-578T was > 100 µM (inactive); in the experiment with SF-268, > 100 µM (inactive); with DU-145 it was > 100 µM (inactive); in the experiment with UACC-257, > 100 µM (inactive); with HCT-15 it was over 100 µM; in the experiment on MDA-MB-231, > 100 µM (inactive). In addition, the GI50 in the experiment on OVCAR-3, in the experiment on COLO 205, with EKVX, in the experiment with SK-MEL-28, with SW-620 and in the experiment with IGROV-1 was > 100 µM (inactive) each time. The GI50 in the experiment on RXF 393, in the experiment on A498, in the experiment with PC-3, in the experiment with SNB-19, with U-251 and with UACC-62 was > 100 µM (inactive) each time.

`Cc1cccc(O)c1-c1nnc(CCCCCCCCc2nnc(-c3c(C)cccc3O)n2N)n1N`: the GI50 in the experiment with Hs-578T is 39.9 µM (inactive); in the experiment with SF-268, 51.3 µM (inactive); in the experiment on DU-145, > 100 µM (inactive); with UACC-257, > 100 µM (inactive); with SK-MEL-2, 38.3 µM (inactive); in the experiment on HCT-15 it was over 100 µM. In addition, the GI50 in the experiment with MDA-MB-231 was > 62.2 µM (inactive); with OVCAR-3, 50.5 µM (inactive); in the experiment on COLO 205, > 31.6 µM (inactive); in the experiment with EKVX it was > 67.3 µM (inactive); in the experiment with SK-MEL-28, > 50.2 µM (inactive); with SW-620, > 100 µM (inactive). The GI50 with IGROV-1 was > 100 µM (inactive); in the experiment on A498, > 100 µM (inactive); in the experiment on PC-3, > 100 µM (inactive); in the experiment with SNB-19, 41.2 µM (inactive); with U-251, 23.2 µM (inactive); in the experiment on UACC-62, 66.7 µM (inactive).

For `Cc1cc(C)c(S(=O)(=O)N(CCCN)OCCON(CCCN)S(=O)(=O)c2c(C)cc(C)cc2C)c(C)c1`, the GI50 with Hs-578T is 2.67 µM (inactive); in the experiment with SF-268 it was 2.18 µM (inactive); in the experiment with DU-145 it was 5.68 µM (inactive); in the experiment on UACC-257 it was 3.39 µM (inactive); in the experiment on SK-MEL-2 it was 1.64 µM (inactive); with HCT-15, 25.7 µM. Besides, the GI50 is 2.89 µM (inactive) in the experiment with MDA-MB-231; 1.79 µM (inactive) with OVCAR-3; 2.66 µM (inactive) in the experiment on COLO 205; 5.24 µM (inactive) in the experiment on EKVX; 5.26 µM (inactive) with SK-MEL-28; > 22.2 µM (inactive) with SW-620. In addition, the GI50 in the experiment with IGROV-1 was 1.97 µM (inactive); in the experiment on RXF 393, 4.67 µM (inactive); with A498, 19.5 µM (inactive); in the experiment with PC-3, 1.73 µM (inactive); in the experiment with SNB-19, 2.08 µM (inactive); in the experiment with UACC-62, 4.19 µM (inactive).
